The values below come from PubChem BioAssay (NCI).

Structures are written as SMILES.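 Briefly, cells in 96-well plates were exposed to five compound concentrations for 48 h, and endpoints were estimated by linear interpolation. GI50 = concentration required for 50% inhibition of growth. TGI marks complete inhibition of growth.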 Bounds are passed on as bounds.

Some test systems named below: NCI-H460 lung; NCI-H23 lung; SNB-75 CNS; SK-MEL-28 melanoma; OVCAR-4 ovarian; OVCAR-5 ovarian; IGROV1 ovarian; LOX IMVI melanoma; HOP-62 NSCLC; ACHN renal; NCI-H226 lung; U251 CNS; SK-MEL-2 melanoma.
What all share (experiment): NCI-60 cell line screen, 48 h

On to `NS(=O)(=O)c1ccc(/C=C/c2ccc(O)cc2)cc1`, for which the TGI with NCI-H460 lung is over 100 µM; in the test on NCI-H23 lung it was 60.1 µM; in the test on SNB-75 CNS, 78.6 µM; in the test on SK-MEL-28 melanoma, 78.2 µM; in the test with OVCAR-4 ovarian it was over 100 µM; with OVCAR-5 ovarian, over 100 µM. Further, the TGI is 84.9 µM with IGROV1 ovarian; over 100 µM with LOX IMVI melanoma; 82.9 µM with HOP-62 NSCLC; 7.75 µM with ACHN renal; 33.1 µM in the test with NCI-H226 lung; over 100 µM with U251 CNS. In the test with SK-MEL-2 melanoma, this compound came in with a TGI of 60.3 µM. The GI50 in the test on NCI-H23 lung was 16.9 µM; in the test with OVCAR-4 ovarian, 36.9 µM; in the test on IGROV1 ovarian, 20.2 µM; in the test on LOX IMVI melanoma it was 19.1 µM; in the test on ACHN renal, 2.28 µM; in the test with NCI-H226 lung it was 11.1 µM. Moreover, the GI50 in the test on U251 CNS was 15 µM.

As to `CCC1NC(N=Nc2ccc([N+](=O)[O-])cc2)(P(=O)(OC(C)C)OC(C)C)OC1=O` (configuration not stated), the TGI in the test with NCI-H23 lung was over 100 µM; with SNB-75 CNS, 97.4 µM; in the test on SK-MEL-28 melanoma, over 100 µM; in the test on OVCAR-4 ovarian, over 100 µM; in the test on OVCAR-5 ovarian it was over 100 µM; in the test on IGROV1 ovarian, over 100 µM. Besides, the TGI in the test with HOP-62 NSCLC, in the test on ACHN renal, in the test on U251 CNS and in the test with SK-MEL-2 melanoma was over 100 µM each time.

Take `O=c1oc2c(Cl)cc(Cl)cc2cc1C1=CSC2=NCCN12`: the TGI in the test on NCI-H460 lung, in the test on NCI-H23 lung, in the test with SNB-75 CNS, in the test with SK-MEL-28 melanoma, in the test with OVCAR-4 ovarian and in the test on OVCAR-5 ovarian was over 100 µM each time. For the same compound, the TGI with IGROV1 ovarian, with LOX IMVI melanoma, with HOP-62 NSCLC, in the test on ACHN renal, in the test on U251 CNS and in the test with SK-MEL-2 melanoma was over 100 µM in each case.

Consider `CCOC(=O)c1nnc2c(C#N)c(-c3ccccc3)c(C)n2c1N`, for which the TGI with NCI-H460 lung is over 100 µM; with NCI-H23 lung, over 100 µM; with SK-MEL-28 melanoma it was 73.2 µM; in the test on OVCAR-4 ovarian it was 43.6 µM; in the test with OVCAR-5 ovarian, over 100 µM; with IGROV1 ovarian, 66.6 µM. In addition, the TGI with LOX IMVI melanoma, in the test with HOP-62 NSCLC, in the test on ACHN renal, in the test with U251 CNS and in the test with SK-MEL-2 melanoma was over 100 µM in each case.

Consider `CC(C)NC(=O)OCc1c2c(n(C)c1COC(=O)NC(C)C)-c1ccccc1CC2`, for which the TGI in the test with NCI-H460 lung was determined as 28.8 µM; with NCI-H23 lung it was 19.7 µM; in the test on SNB-75 CNS, 29.4 µM; in the test with SK-MEL-28 melanoma, 26.2 µM; in the test on OVCAR-4 ovarian it was 34.5 µM; in the test on OVCAR-5 ovarian it was 31.6 µM. The TGI with IGROV1 ovarian is 29.2 µM; in the test with LOX IMVI melanoma, 16.9 µM; with HOP-62 NSCLC, 18.6 µM; with NCI-H226 lung, 31.4 µM; in the test on U251 CNS, 22.5 µM; in the test with SK-MEL-2 melanoma, 29.5 µM.

Consider `c1ccc([I+]c2ccccc2)cc1`, for which the TGI in the test on NCI-H460 lung, with NCI-H23 lung, in the test on SK-MEL-28 melanoma, in the test with OVCAR-4 ovarian, in the test with OVCAR-5 ovarian and in the test with IGROV1 ovarian was over 100 µM in each case. The TGI with LOX IMVI melanoma, in the test on HOP-62 NSCLC, in the test on ACHN renal, with NCI-H226 lung, with U251 CNS and in the test on SK-MEL-2 melanoma was over 100 µM throughout.

As for `CC1=CC2c3cccc4[nH]cc(c34)CC2N(C)C1` (configuration not stated), the TGI in the test on NCI-H460 lung is over 100 µM; in the test with NCI-H23 lung, over 100 µM; with SNB-75 CNS, over 82.4 µM; in the test on SK-MEL-28 melanoma, over 100 µM; in the test on OVCAR-4 ovarian, over 100 µM; in the test on OVCAR-5 ovarian, over 100 µM. Moreover, the TGI in the test on IGROV1 ovarian was over 100 µM; with LOX IMVI melanoma it was over 100 µM; with HOP-62 NSCLC, 30.8 µM; in the test with NCI-H226 lung it was over 100 µM; with U251 CNS, over 100 µM; in the test with SK-MEL-2 melanoma, over 100 µM.

In the case of `CC(Cl)CC(=O)OCC1CCCN2CCCCC12` (configuration not stated), the TGI in the test with NCI-H460 lung, with NCI-H23 lung, in the test on SNB-75 CNS, in the test on SK-MEL-28 melanoma, in the test on OVCAR-4 ovarian and with OVCAR-5 ovarian was over 100 µM each time. Further, the TGI in the test with LOX IMVI melanoma, in the test on HOP-62 NSCLC, with ACHN renal, in the test with NCI-H226 lung, in the test with U251 CNS and with SK-MEL-2 melanoma was over 100 µM in each case.

Take `Cc1ccc2c(=O)c3ccccc3sc2c1`: the TGI in the test on NCI-H460 lung, in the test with NCI-H23 lung, in the test on SK-MEL-28 melanoma, in the test with OVCAR-4 ovarian, in the test on OVCAR-5 ovarian and in the test with IGROV1 ovarian was over 100 µM in each case. Besides, the TGI with LOX IMVI melanoma, with HOP-62 NSCLC, in the test with ACHN renal, in the test on NCI-H226 lung and with U251 CNS was over 100 µM throughout.
